Consider two compounds from ChEMBL document CHEMBL5518224, “Rational Design of PARP1/c-Met Dual Inhibitors for Overcoming PARP1 Inhibitor Resistance Induced by c-Met Overexpression” (J Med Chem, 2024).

The structures appear in SMILES notation. Activity calls are given as the source filed them. The calls are words filed in the database; no cut-off is given here.

Test [1] deals with MDA-MB-231. Kind of test: Antiproliferative activity against human MDA-MB-231 cells harboring wild type BRCA and c-Met amplification assessed as inhibition of cell growth incubated for 7 days by MTT assay. It counts as functional, cell-based. To be noted: MDA-MB-231, 168 h.
A further test deals with MDA-MB-468. In words: Antiproliferative activity against human MDA-MB-468 cells harboring wild type BRCA1/2, HR-proficient and non-c-Met amplification assessed as inhibition of cell growth incubated for 7 days by MTT assay. It counts as functional, cell-based. The conditions noted are these: MDA-MB-468, 168 h.
Test [2] is described as follows: Antiproliferative activity against human Olaparib-resistant HCC1937 cells harboring BRCA1 mutant and PARP1 overexpression assessed as inhibition of cell growth incubated for 7 days by MTT assay. It counts as functional, cell-based. The conditions noted are these: Olaparib-resistant HCC1937, 168 h.
Test [3] deals with Olaparib-resistant HCT116. Kind of test: Antiproliferative activity against human Olaparib-resistant HCT116 cells harboring BRCA2 mutant assessed as inhibition of cell growth incubated for 7 days by MTT assay. It counts as functional, cell-based. The conditions noted are these: Olaparib-resistant HCT116, 168 h.
Test [4] concerns MDA-MB-231. In words: Induction of apoptosis in human MDA-MB-231 cells assessed as live cells at 1 uM incubated for 4 days by Annexin V-FITC/PI staining based flow cytometry analysis (reference value: 94.6%). It counts as functional. The conditions noted are these: time 4 day.
Test [5] has as its system MDA-MB-231. Kind of test: Induction of apoptosis in human MDA-MB-231 cells assessed as early apoptotic cells at 1 uM incubated for 4 days by Annexin V-FITC/PI staining based flow cytometry analysis (reference value: 3.88%). It counts as functional. The conditions noted are these: time 4 day.
Test [6] concerns MDA-MB-231. In words: Induction of apoptosis in human MDA-MB-231 cells assessed as late apoptotic cells at 1 uM incubated for 4 days by Annexin V-FITC/PI staining based flow cytometry analysis (reference value: 0.81%). It counts as functional. To be noted: time 4 day.
Test [7] has as its system MDA-MB-231. In words: Induction of apoptosis in human MDA-MB-231 cells assessed as dead cells at 1 uM incubated for 4 days by Annexin V-FITC/PI staining based flow cytometry analysis (reference value: 0.72%). It counts as functional. The conditions noted are these: time 4 day.
The test system of test [8] is MDA-MB-231. In words: Induction of apoptosis in human MDA-MB-231 cells assessed as live cells at 1 uM incubated for 4 days in presence of crizotinib at 0.5 uM by Annexin V-FITC/PI staining based flow cytometry analysis (reference value: 94.6%). The conditions noted are these: time 4 day. It counts as functional.
Test [9] concerns MDA-MB-231. Kind of test: Induction of apoptosis in human MDA-MB-231 cells assessed as early apoptotic cells at 1 uM incubated for 4 days in presence of crizotinib at 0.5 uM by Annexin V-FITC/PI staining based flow cytometry analysis (reference value: 3.88%). It counts as functional. The conditions noted are these: time 4 day.
The test system of test [10] is MDA-MB-231. Kind of test: Induction of apoptosis in human MDA-MB-231 cells assessed as late apoptotic cells at 1 uM incubated for 4 days in presence of crizotinib at 0.5 uM by Annexin V-FITC/PI staining based flow cytometry analysis (reference value: 0.81%). It counts as functional. The conditions noted are these: time 4 day.
Test [11] relates to MDA-MB-231. In words: Induction of apoptosis in human MDA-MB-231 cells assessed as dead cells at 1 uM incubated for 4 days in presence of crizotinib at 0.5 uM by Annexin V-FITC/PI staining based flow cytometry analysis (reference value: 0.72%). It counts as functional. To be noted: time 4 day.
In test [12] the test system is MDA-MB-231. Kind of test: Antitumor activity against human MDA-MB-231 cells xenografted in female Balb/c nude mouse assessed as tumor growth inhibition at 50 mg/kg/day, ip qd administered for 28 days relative to control. To be noted: time 28 day. It counts as functional.
The test system of test [13] is Olaparib-resistant HCT116. In words: Antitumor activity against human Olaparib-resistant HCT116 cells xenografted in female Balb/c nude mouse assessed as tumor growth inhibition at 50 mg/kg/day, ip qd administered for 21 days relative to control. The conditions noted are these: time 21 day. It counts as functional.
The subject of test [14] is Olaparib-resistant HCT116. In words: Antitumor activity against human Olaparib-resistant HCT116 cells xenografted in female Balb/c nude mouse assessed as tumor growth inhibition at 50 mg/kg/day, ip qd administered for 21 days in presence of crizotinib at 25 mg/kg/day, po qd relative to control. It counts as functional. The conditions noted are these: time 21 day.
Test [15] has as its system MDA-MB-231. Kind of test: Antitumor activity against human MDA-MB-231 cells xenografted in female Balb/c nude mouse assessed as reduction in tumor weight at 50 mg/kg/day, ip qd administered for 28 days in presence of crizotinib at 25 mg/kg, po qd. To be noted: time 28.0 day. It counts as functional, organism-based.
Test [16] deals with Olaparib-resistant HCT116. Kind of test: Antitumor activity against human Olaparib-resistant HCT116 cells xenografted in female Balb/c nude mouse assessed as reduction in tumor weight at 50 mg/kg/day, ip qd administered for 21 days in presence of crizotinib at 25 mg/kg/day, po qd. To be noted: time 21.0 day. It counts as functional, organism-based.
In test [17] the test system is Olaparib-resistant HCT116. In words: Antitumor activity against human Olaparib-resistant HCT116 cells xenografted in female Balb/c nude mouse assessed as reduction in tumor weight at 25 mg/kg/day, po qd administered for 21 days in presence of olaparib at 50 mg/kg/day, ip qd. It counts as functional, organism-based. The conditions noted are these: time 21.0 day.
For test [18], the system named is MDA-MB-231. Kind of test: Antitumor activity against human MDA-MB-231 cells xenografted in female Balb/c nude mouse assessed as reduction in tumor weight at 50 mg/kg/day, ip qd administered for 28 days. It counts as functional, organism-based. The conditions noted are these: time 28.0 day.
Test [19] has as its system Olaparib-resistant HCT116. Kind of test: Antitumor activity against human Olaparib-resistant HCT116 cells xenografted in female Balb/c nude mouse assessed as reduction in tumor weight at 50 mg/kg/day, ip qd administered for 21 days. It counts as functional, organism-based. To be noted: time 21.0 day.
Test [20] concerns MDA-MB-231. Kind of test: Induction of apoptosis in human MDA-MB-231 cells assessed as live cells at 0.5 uM incubated for 4 days by Annexin V-FITC/PI staining based flow cytometry analysis (reference value: 94.6%). To be noted: time 4 day. It counts as functional.
Test [21] concerns MDA-MB-231. In words: Induction of apoptosis in human MDA-MB-231 cells assessed as early apoptotic cells at 0.5 uM incubated for 4 days by Annexin V-FITC/PI staining based flow cytometry analysis (reference value: 3.88%). It counts as functional. The conditions noted are these: time 4 day.
Test [22] concerns MDA-MB-231. In words: Induction of apoptosis in human MDA-MB-231 cells assessed as late apoptotic cells at 0.5 uM incubated for 4 days by Annexin V-FITC/PI staining based flow cytometry analysis (reference value: 0.81%). It counts as functional. To be noted: time 4 day.
The test system of test [23] is MDA-MB-231. Kind of test: Induction of apoptosis in human MDA-MB-231 cells assessed as dead cells at 0.5 uM incubated for 4 days by Annexin V-FITC/PI staining based flow cytometry analysis (reference value: 0.72%). It counts as functional. The conditions noted are these: time 4 day.
Test [24] deals with MDA-MB-231. Kind of test: Induction of apoptosis in human MDA-MB-231 cells assessed as live cells at 0.5 uM incubated for 4 days in presence of olaparib at 1 uM by Annexin V-FITC/PI staining based flow cytometry analysis (reference value: 94.6%). It counts as functional. The conditions noted are these: time 4 day.
For test [25], the system named is MDA-MB-231. Kind of test: Induction of apoptosis in human MDA-MB-231 cells assessed as early apoptotic cells at 0.5 uM incubated for 4 days in presence of olaparib at 1 uM by Annexin V-FITC/PI staining based flow cytometry analysis (reference value: 3.88%). The conditions noted are these: time 4 day. It counts as functional.
For test [26], the system named is MDA-MB-231. In words: Induction of apoptosis in human MDA-MB-231 cells assessed as late apoptotic cells at 0.5 uM incubated for 4 days in presence of olaparib at 1 uM by Annexin V-FITC/PI staining based flow cytometry analysis (reference value: 0.81%). It counts as functional. To be noted: time 4 day.
In test [27] the test system is MDA-MB-231. In words: Induction of apoptosis in human MDA-MB-231 cells assessed as dead cells at 0.5 uM incubated for 4 days in presence of olaparib at 1 uM by Annexin V-FITC/PI staining based flow cytometry analysis (reference value: 0.72%). It counts as functional. To be noted: time 4 day.
The test system of test [28] is MDA-MB-231. Kind of test: Antitumor activity against human MDA-MB-231 cells xenografted in female Balb/c nude mouse assessed as tumor growth inhibition at 25 mg/kg/day, po qd administered for 28 days relative to control. It counts as functional. The conditions noted are these: MDA-MB-231, 672 h, time 28 day, read-out: TGI.
For test [29], the system named is MDA-MB-231. In words: Antitumor activity against human MDA-MB-231 cells xenografted in female Balb/c nude mouse assessed as tumor growth inhibition at 25 mg/kg/day, po qd administered for 28 days in presence of olaparib 50 mg/kg, ip qd relative to control. It counts as functional. To be noted: MDA-MB-231, 672 h, time 28 day, read-out: TGI.
Test [30] concerns Olaparib-resistant HCT116. Kind of test: Antitumor activity against human Olaparib-resistant HCT116 cells xenografted in female Balb/c nude mouse assessed as tumor growth inhibition at 25 mg/kg/day, po qd administered for 21 days relative to control. To be noted: Olaparib-resistant HCT116, 504 h, time 21 day, read-out: TGI. It counts as functional.
The subject of test [31] is Olaparib-resistant HCT116. Kind of test: Antitumor activity against human Olaparib-resistant HCT116 cells xenografted in female Balb/c nude mouse assessed as tumor growth inhibition at 25 mg/kg/day, po qd administered for 21 days in presence of olaparib at 50 mg/kg/day, ip qd relative to control. To be noted: Olaparib-resistant HCT116, 504 h, time 21 day, read-out: TGI. It counts as functional.

The subject of test [32] is MDA-MB-231. Kind of test: Antitumor activity against human MDA-MB-231 cells xenografted in female Balb/c nude mouse assessed as reduction in tumor weight at 25 mg/kg/day, po qd administered for 28 days. It counts as functional, organism-based. The conditions noted are these: time 28.0 day.
Test [33] relates to MDA-MB-231. In words: Antitumor activity against human MDA-MB-231 cells xenografted in female Balb/c nude mouse assessed as reduction in tumor weight at 25 mg/kg/day, po qd administered for 28 days in presence of olaparib 50 mg/kg, ip qd. The conditions noted are these: time 28.0 day. It counts as functional, organism-based.
For test [34], the system named is Olaparib-resistant HCT116. In words: Antitumor activity against human Olaparib-resistant HCT116 cells xenografted in female Balb/c nude mouse assessed as reduction in tumor weight at 25 mg/kg/day, po qd administered for 21 days. It counts as functional, organism-based. The conditions noted are these: time 21.0 day.

`O=C(c1cc(Cc2n[nH]c(=O)c3ccccc23)ccc1F)N1CCN(C(=O)C2CC2)CC1` [OLAPARIB]: the IC50 in the test on MDA-MB-231 [1] is 30.7 µM; with MDA-MB-468, 9.23 µM; in test [2] it was 18.9 µM; in test [3], 50.8 µM. In addition, the Activity came to 88.9% in the test with MDA-MB-231 [4]; 3.77% with MDA-MB-231 [5]; 2.48% in the test with MDA-MB-231 [6]; 4.86% in the test on MDA-MB-231 [7]; 76.9% in the test with MDA-MB-231 [8]; 7.12% with MDA-MB-231 [9]. Moreover, the Activity with MDA-MB-231 [10] was determined as 6.57%; in the test on MDA-MB-231 [11] it was 9.45%. The TGI was 27% with MDA-MB-231 [12], 26% in [13] and 48% in test [14]. Also, the outcome (in the test on MDA-MB-231 [15]; in test [16]; in test [17]; in the test with MDA-MB-231 [18]; in test [19]) was Active.
As for `C[C@@H](Oc1cc(-c2cnn(C3CCNCC3)c2)cnc1N)c1c(Cl)ccc(F)c1Cl` [CRIZOTINIB], the IC50 amounted to 8.37 µM in the test with MDA-MB-231 [1], 4.54 µM in the test on MDA-MB-468, 5.23 µM in test [2] and 3.15 µM in test [3]. The Activity in the test on MDA-MB-231 [20] is given as 90.9%; with MDA-MB-231 [21], 4.75%; with MDA-MB-231 [22], 2.08%; with MDA-MB-231 [23], 2.23%; in the test on MDA-MB-231 [24], 76.9%; in the test with MDA-MB-231 [25], 7.12%. For the same compound, the Activity in the test with MDA-MB-231 [26] worked out at 6.57%; in the test on MDA-MB-231 [27], 9.45%. The inhibition in vivo at 25 mg/kg/day in the test on MDA-MB-231 [28] was determined as 6%; with MDA-MB-231 [29], 69%; in test [30], 21%; in test [31], 48%. Moreover, the result (with MDA-MB-231 [32]; with MDA-MB-231 [33]; in test [34]) was Active.
